Counter-ions that a name gives are not always drawn. Like-named read-outs stand apart in the source and are kept apart here. Each block holds one compound with its values, some of them ahead of it.
Tests used:
[1] = tested on: primary human mesenchymal stem cells (MSCs); test: Osteoinductive (OI) alkaline phosphatase (ALP) assay, dose response, ALP normalised to DNA; assay type: cell-based
From the text: (§1) Samples from several classes of small molecule compounds including, corticosteroids, glucocorticoids, oxysterols, compounds that impact the HMG coA reductase pathway and compounds that upregulate intracellular cAMP were screened for osteoinductive potential with an alkaline phosphatase (ALP) assay in primary human mesenchymal stem cells (MSCs). Sample compounds were screened over a dose range in a multiwell plate format using DNA to normalize the ALP response as a function of cell number. These dose response curves allowed for the determination of an EC50 to measure relative potency of the osteogenic response between compounds. FIG. 1 is a representative dose response curve for two of the corticosteroid compounds tested, clobetasol propionate and dexamethasone. In addition to the functional analysis, certain identified compounds were run through an in vitro L929 cytotoxicity assay to determine a CC50.

[2] = In vitro L929 cytotoxicity assay (CTG); assay type: cell-based; conditions: mouse, L929 cells; read-out: Cytotox (CTG) CC50
From the text: as §1

MSCs [3] = test: Relative potency: ALP assay after short exposure times, then basal media to assay completion; assay type: cell-based, human; conditions: for EC50: Homo sapiens, MSCs, then basal media; for Max Osteogenic Response: time range to reach the full response of the ALP assay control (dexamethasone at 10 nM for 6 days)
Protocol: One part of this technology may involve coating an osteoconductive scaffold with an osteoinductive small molecule compound to thereby deliver the compound locally when the scaffold is implanted. Consequently, the optimal time and concentration profile required for the compound to remain at the site in order to influence an osteogenic outcome was determined. Initially, potency was determined by looking at exposure over 6 days. In order to better understand the optimal exposure profile, MSCs were treated over a series of dose ranges for exposure times starting at 1 hour out to 4 days, after which the compound treated media was removed and the cells were allowed to continue to assay completion under basal media conditions. This allowed for the determination of the relative potency of the compounds over short exposure periods and gave an indication of the release requirements that would be necessary to achieve the desired osteogenic outcome.
FIG. 2 is a representative relative potency graph of a corticosteroid, fluticasone propionate, based on the results shown in Table 2.

MSCs [4] = test: In vitro 3-D efficacy: ALP RNA expression in MSCs seeded on coated Scaffold I; assay type: cell-based; conditions: compound precoated on Scaffold I, MSCs cultured three days, versus basal conditions
Protocol: The osteoinductive potential of selected small molecule compounds were determined in vitro by seeding MSCs onto a three dimensional b-TCP polymer composite scaffold, Scaffold I, which had been coated with selected compounds prior to seeding. These cells were allowed to culture for a period of time after which they were assayed for alkaline phosphatase (ALP) RNA content, an early marker of osteogenic differentiation. FIG. 7 is a graphical illustration showing the amount of ALP RNA expression in the MSCs, expressed as a fold increase over basal conditions (standard culture conditions). In this example, dexamethasone (a control for the assay) was added to the culture media in solution whereas in all other cases the compounds were precoated on to Scaffold I followed by addition of the MSCs. The cells were then cultured for three days and assayed for their level of osteogenic response via ALP RNA expression.

L929 = test: In vitro L929 cytotoxicity assay (CTG); assay type: cell-based; conditions: L929 cells; read-out: Cytotox (CTG) CC50
From the text: as §1

[5] = Homo sapiens, Mesenchymal stem cells, 144 h, primary human MSCs, exposure over 6 days, read-out: OI Assay (ALP) EC50
[6] = primary human MSCs, exposure over 6 days, read-out: OI Assay (ALP) EC50
[7] = Homo sapiens, Mesenchymal stem cells, 144 h, MSCs, 6 days exposure, read-out: EC50 6 days
[8] = 1 hr exposure, read-out: EC50 1 hr.
[9] = 4 hr exposure, read-out: EC50 4 hr.
[10] = 24 hr exposure, read-out: EC50 24 hr.
[11] = 72 hr exposure, read-out: EC50 72 hr

SMILES: CC(C)Cn1c(=O)n(C)c(=O)c2[nH]cnc21 [3-isobutyl 1-methylxanthine (IBMX), 3-isobutyl 1-methylxanthine]
EC50 [1, 5]: > 10000 nM

SMILES: CC(C)CCC[C@@H](C)[C@H]1CC[C@H]2[C@@H]3CC=C4C[C@@H](O)CC[C@]4(CO)[C@H]3CC[C@]12C [19-hydroxy-cholesterol]
EC50 [1, 5]: > 12000 nM

SMILES: CC(C)CC[C@H](O)[C@@H](C)[C@H]1CC[C@H]2[C@@H]3CC=C4C[C@@H](O)CC[C@]4(C)[C@H]3CC[C@]12C [22(S)-hydroxy-cholesterol]
EC50 [1, 5]: > 12000 nM

SMILES: CC(C)CC[C@@H](O)[C@@H](C)[C@H]1CC[C@H]2[C@@H]3CC=C4C[C@@H](O)CC[C@]4(C)[C@H]3CC[C@]12C [22(r)-hydroxy-cholesterol]
EC50 [1, 5]: 785 nM
CC50 [2]: > 12 µM

SMILES: C[C@H](CCCC(C)(C)O)[C@H]1CC[C@H]2[C@@H]3CC=C4C[C@@H](O)CC[C@]4(C)[C@H]3CC[C@]12C [25-hydroxy-cholestero]
EC50 [1, 6]: > 12000 nM

SMILES: C[C@]12CCC(=O)C=C1CC[C@@H]1[C@@H]2[C@@H](O)C[C@]2(C=O)[C@@H](C(=O)CO)CC[C@@H]12 [Aldosterone 98%, Aldosterone]
EC50 [1, 5]: 287 nM

SMILES: C[C@H]1C[C@H]2[C@@H]3CCC4=CC(=O)C=C[C@]4(C)[C@@]3(F)[C@@H](O)C[C@]2(C)[C@@]1(O)C(=O)CO [Betamethasone]
EC50 [1, 5]: 1.96 nM

EC50 (MSCs [3]; [8]): 47.9 nM
EC50 (MSCs [3]; [9]): 5.47 nM
EC50 (MSCs [3]; [10]): 4.48 nM
EC50 (MSCs [3]; [11]): 0.0533 nM
SMILES: CCCC1O[C@@H]2C[C@H]3[C@@H]4CCC5=CC(=O)C=C[C@]5(C)[C@H]4[C@@H](O)C[C@]3(C)[C@]2(C(=O)CO)O1 (some centres unmarked) [Budesonide]
EC50 [1, 7]: 0.296 nM
EC50 [1, 5]: 0.296 nM
CC50 [2]: > 30 µM
Max Osteogenic Response (MSCs [3]): 72 h

EC50 (MSCs [3]; [8]): 0.0605 nM
EC50 (MSCs [3]; [9]): 0.019 nM
EC50 (MSCs [3]; [10]): 0.0804 nM
EC50 (MSCs [3]; [11]): 0.00371 nM
SMILES: CCC(=O)O[C@]1(C(=O)CCl)[C@@H](C)C[C@H]2[C@@H]3CCC4=CC(=O)C=C[C@]4(C)[C@@]3(F)[C@@H](O)C[C@@]21C [Clobetasol propionate]
EC50 [1, 7]: 0.012 nM
EC50 [1, 5]: 0.012 nM
CC50 [2]: > 30 µM
Max Osteogenic Response (MSCs [3]): 72 h
ALP RNA expression (osteogenic differentiation of MSCs) (MSCs [4]): upregulated osteogenic differentiation of MSCs significantly

SMILES: CC(=O)OCC(=O)[C@@]12N=C(C)O[C@@H]1C[C@H]1[C@@H]3CCC4=CC(=O)C=C[C@]4(C)[C@H]3[C@@H](O)C[C@@]12C [Deflazacort]
EC50 [1, 5]: 9.85 nM

EC50 (MSCs [3]; [9]): 0.787 nM
EC50 (MSCs [3]; [11]): 0.277 nM
SMILES: C[C@@H]1C[C@H]2[C@@H]3CCC4=CC(=O)C=C[C@]4(C)[C@@]3(F)[C@@H](O)C[C@]2(C)[C@@]1(O)C(=O)CO [Dexamethasone]
EC50 [1, 7]: 0.95 nM
EC50 [1, 5]: 0.95 nM
CC50 [2]: > 50 µM

SMILES: CC(=O)OCC(=O)[C@@]1(OC(C)=O)[C@@H](C)C[C@H]2[C@@H]3C[C@H](F)C4=CC(=O)C=C[C@]4(C)[C@@]3(F)[C@@H](O)C[C@@]21C [Diflorasone Diacetate]
EC50 [1, 5]: 1.38 nM

SMILES: OCCN(CCO)c1nc(N2CCCCC2)c2nc(N(CCO)CCO)nc(N3CCCCC3)c2n1 [Dipyridamole]
CC50 [2]: > 30 µM

SMILES: COC(=O)[C@H](CCSC)NC(=O)c1ccc(NC[C@@H](N)CS)cc1-c1ccccc1 [FTI-277 trifluoroacetate salt]
EC50 [1, 6]: > 12000 nM

SMILES: CC(=O)OCC(=O)[C@@]1(O)CC[C@H]2[C@@H]3CCC4=CC(=O)CC[C@]4(C)[C@@]3(F)[C@@H](O)C[C@@]21C [Fludrocotisone actetate]
EC50 [1, 6]: 4.12 nM

EC50 (MSCs [3]; [9]): 0.464 nM
EC50 (MSCs [3]; [11]): 0.146 nM
SMILES: CC(=O)[C@@]1(O)CC[C@H]2[C@@H]3C[C@H](C)C4=CC(=O)C=C[C@]4(C)[C@@]3(F)[C@@H](O)C[C@@]21C [Fluorometholone]
EC50 [1, 7]: 0.319 nM
EC50 [1, 5]: 0.319 nM
CC50 [2]: > 5 µM
Max Osteogenic Response (MSCs [3]): 144 h

SMILES: CC1(C)O[C@@H]2C[C@H]3[C@@H]4C[C@H](F)C5=CC(=O)CC[C@]5(C)[C@H]4[C@@H](O)C[C@]3(C)[C@]2(C(=O)CO)O1 [Flurandrenolide]
EC50 [1, 5]: 1.56 nM

SMILES: O=CN(O)CCCP(=O)(O)O [Fosmidomycin]
EC50 [1, 5]: > 10000 nM

SMILES: COC(=O)[C@H](CC(C)C)NC(=O)c1ccc(NC[C@@H](N)CS)cc1-c1ccccc1 [GGTI-286]
EC50 [1, 6]: > 12000 nM

EC50 (MSCs [3]; [8]): 2.29 nM
EC50 (MSCs [3]; [10]): 1.26 nM
EC50 (MSCs [3]; [11]): 0.115 nM
SMILES: CC1(C)O[C@@H]2C[C@H]3[C@@H]4CCC5=CC(=O)CC[C@]5(C)[C@@]4(F)[C@@H](O)C[C@]3(C)[C@]2(C(=O)CCl)O1 [Halcinonide]
EC50 [1, 7]: 0.235 nM
EC50 [1, 5]: 0.235 nM
CC50 [2]: > 10 µM
Max Osteogenic Response (MSCs [3]): 72 h
ALP RNA expression (osteogenic differentiation of MSCs) (MSCs [4]): upregulated osteogenic differentiation of MSCs significantly

SMILES: O=C1C=C2C(=CCOC2O)O1 (centres unmarked) [Patulin]
EC50 ([1]; Mesenchymal stem cells, 144 h, primary human MSCs, exposure over 6 days, read-out: OI Assay (ALP) EC50): > 10000 nM

SMILES: CC(=O)CCCCn1c(=O)c2c(ncn2C)n(C)c1=O [Pentoxifylline (Trental), Pentoxifylline]
EC50 [1, 5]: > 10000 nM

SMILES: CCCn1cnc2c1c(=O)n(CCCCC(C)=O)c(=O)n2C [Propentofylline]
EC50 [1, 5]: > 10000 nM

SMILES: C[C@]12C=CC(=O)C=C1CC[C@H]1[C@@H]3C[C@@H](O)[C@](O)(C(=O)CO)[C@@]3(C)C[C@H](O)[C@@]12F [Triamcinolone]
EC50 [1, 5]: 4.13 nM

SMILES: CCN(CC)CCOc1ccc(C(O)(Cc2ccc(Cl)cc2)c2ccc(C)cc2)cc1 (centres unmarked) [Triparanol]
EC50 [1, 5]: > 10000 nM

SMILES: C=C(CC[C@]12O[C@H](C(=O)O)[C@@](O)(C(=O)O)[C@](C(=O)O)(O1)[C@H](OC(=O)/C=C/[C@@H](C)C[C@@H](C)CC)[C@H]2O)[C@@H](OC(C)=O)[C@H](C)Cc1ccccc1 [Zaragozic Acid A]
EC50 [1, 6]: 715 nM
CC50 (L929): > 30 µM

SMILES: O=C(O)c1ccc(CCN2CCN(C/C=C/c3ccc(Cl)cc3)CC2)cc1 [bm15766 sulfate]
EC50 [1, 6]: > 10000 nM

SMILES: CCCC(=O)Nc1ncnc2c1ncn2[C@@H]1O[C@@H]2COP(=O)(O)O[C@H]2[C@H]1OC(=O)CCC [dbcAMP]
EC50 [1, 6]: > 10000 nM

SMILES: CC[C@H](CC[C@@H](C)[C@H]1CC[C@H]2[C@@H]3CC=C4C[C@@H](O)CC[C@]4(C)[C@H]3CC[C@]12C)C(C)C [β-Sitosterol]
EC50 [1, 6]: > 12000 nM

— patent US8642065B2, “Osteogenic promoting implants and methods of inducing bone growth” (DePuy Synthes Products, LLC, priority 2011, dated 2014)
